From patent US8530404B2, “Compounds and methods for treatment of cancer” (FibroGen, Inc., priority 2005, dated 2013)
Marks after values point to notes of the source that are not given here.

What was measured:
[1] = system: HCT116-GFP colon tumors; assay: Orthotopically implanted human HCT116-GFP colon tumor mouse xenograft (Example 4); assay type: in vivo; conditions: 60 mg/kg intraperitoneal at four day intervals, three doses
Method: Procedures were carried out as described above for Example 3, except that the tumors of GFP-transfected H-460 cells were replaced with HCT116-GFP colon tumors, and surgical orthotopic implantation was directly into colon tissue.
The HCT116 tumor model used here is a well-characterized representative colon xenograft model. The isolation of the human HCT116 tumor cell line from a human colon carcinoma has been described. (Brattain et al (1981) Cancer Res 41:1751-1756.) To aid in the detection of tumors and metastases, HCT116 cells were transduced with genes directing the expression of fluorescent proteins (e.g., HCT116-GFP). The use of fluorescent HCT116-derived tumors in similar studies has been described previously. (Ross et al (2000) Nat Genet 24:227-235.)
HCT116-GFP tumor fragments harvested from the stock animals were transplanted into animals by surgical orthotopic implantation (SOI) as follows. The animals were anesthetized with isoflurane and the surgical area was sterilized using iodine and alcohol. After proper exposure of the colon following a lower midline abdominal incision, the serosa of the colon was removed and two pieces of 1 mm^3 tumor fragments per mouse were implanted. An 8-0 surgical suture was used to penetrate these small tumor pieces and suture them on the wall of the intestine. The intestine was then returned to the abdominal cavity. The incision in the abdominal wall was closed with a 6-0 surgical suture in one layer. The animals were kept under isoflurane anesthesia during surgery. All procedures of the operation described above were performed under a 7× magnification microscope (Olympus). Animals were kept in a barrier facility under HEPA filtration.
Administration of Compound A or 5-FU (5-Flurouracil) to the animals was initiated three days following tumor transplantation. 5-FU, a chemotherapeutic agent used as a positive control, was administered by intraperitoneal injection (60 mg/kg) at four day intervals for a total of three doses. Compound A was administered at either 20 mg/kg or 60 mg/kg three times per week. Tumor volumes were measured at day 15, day 22, and day 29.

[2] = system: human H-460 lung tumors; assay: Subcutaneously implanted human H-460 lung tumor mouse xenograft (Example 1); assay type: in vivo; conditions: 15 mg/kg i.v.
Source text: Immuno-compromised athymic CD-1 nu/nu nude mice males (5-6 weeks old) were used in this study (Charles River Laboratories, Wilmington, Mass.). Animals were maintained in a HEPA-filtered environment during the experimental period. Cages, food, and bedding were autoclaved. Animal diets were obtained from Harlan Teklad (Madison, Wis.). […] The human H460 lung cancer cell line used was obtained from the National Cancer Institute. (Brower et al., (1986) Cancer Res 46:798-806.) Xenografted H-460 tumors are sensitive to chemotherapeutics commonly used in treatment of lung cancer. […] A stock tumor was established by subcutaneously injecting a cell suspension into nude mice. The resulting tumor was maintained in nude mice subcutaneously as tumor stock prior to use. Tumor implantation was performed when the stock tumors were in log phase of growth. Before implantation, tumor tissue was harvested from stock mice and placed in RPMI-1640 medium. Necrotic tissues were dissected away and viable tissues were cut into 1-2 mm^2 pieces. Tumor fragments were then transplanted subcutaneously to the right flank of the nude mice. Treatment (administration of compounds of the present invention) was started when the inoculated tumors reached approximately 100 mm^3, and continued for four weeks. […] [table] Sizes of the primary tumors were measured through the skin with calipers once per week. […] Body weight of the mice in each group was also measured once per week during the experimental period. All animals were sacrificed following thirty-two days of treatment. Primary tumors were excised and weighed on an electronic balance. Blood samples were taken during terminal sacrifice and placed in microhematocrit tubes containing EDTA. Complete Blood Counts (CBC) and reticulocyte analysis were performed with the Cell Dyn 3700 analyzer (Abbott Diagnostics), as described by the manufacturer.

[3] = Body weight in H-460 xenograft mice (Example 1); assay type: in vivo, mouse; conditions: 15 mg/kg i.v.
Method: (§1) Sizes of the primary tumors were measured through the skin with calipers once per week. Tumor volumes were calculated by the formula V═(W^2*L)/2. Body weight of the mice in each group was also measured once per week during the experimental period. All animals were sacrificed following thirty-two days of treatment. Primary tumors were excised and weighed on an electronic balance. Blood samples were taken during terminal sacrifice and placed in microhematocrit tubes containing EDTA. Complete Blood Counts (CBC) and reticulocyte analysis were performed with the Cell Dyn 3700 analyzer (Abbott Diagnostics), as described by the manufacturer.
Thus, differences in tumor progression as measured by mean tumor volumes could not be attributed to any generalized toxicity or suppression of normal metabolism that might have been detected by changes in body weights.

[4] = Complete blood counts and reticulocyte analysis in H-460 xenograft mice (Example 1); assay type: in vivo, mouse; conditions: study end; 15 mg/kg i.v.
Method: as §1

[5] = system: H460 tumor cells; assay: Subcutaneous H460 lung tumor xenograft, tumor growth delay study in combination with chemotherapeutics (Example 6); assay type: in vivo, mouse; conditions: Cmpd A 60 mg/kg p.o., paclitaxel 15 mg/kg i.v., carboplatin 120 mg/kg i.p.
Method: This study was used to determine the effect of combined treatments where compounds and methods of the invention were combined with conventional anti-tumor therapies. These experiments were performed essentially as described above in Example 3, except that 1×10^7 H460 tumor cells were implanted subcutaneously to the flanks of female Harlan nude animals. The number of animals in each group was 10. Treatments were initiated when tumors reached an average size of approximately 100 mm^3.
The study design was representative of tumor progression studies of the TGD (Tumor Growth Delay) type, using a protocol that required individual animals to be humanely euthanized after reaching a set endpoint of tumor volume greater than or equal to 2 cc.
These two chemotherapeutic agents are of two broad classes of conventional anti-tumor therapeutics: microtubule poisons (paclitaxcel); and DNA-directed agents, including the sub-classification of DNA alkylating agents (carboplatin). In tumor-bearing human patients, conventional anti-tumor therapy commonly use of one or both classes of chemotherapeutic agents.
The study was initiated with administration of conventional anti-tumor treatment or vehicle control, and followed one day after with administration of Compound A or vehicle control. […] (See Table 11 and Table 12 for compound and chemotherapeutic agent dosing schedule.)
Tumor progression was determined for each treatment group and is presented as median Time-to-Endpoint (TTE).

[6] = system: human A549 lung tumors; assay: Subcutaneously implanted human A549 lung tumor mouse xenograft (Example 2); assay type: in vivo

## O=c1[nH]cc(F)c(=O)[nH]1 [Compound 5-FU, 5-Flurouracil, reference compound]
[1]; Treatment Day 15
  mean tumor volume (calipers, mean +/- SD): 0 +/− 0
[1]; Treatment Day 22
  mean tumor volume (calipers, mean +/- SD): 1 +/− 4
[1]; Treatment Day 29
  mean tumor volume (calipers, mean +/- SD): 8 +/− 13

## CC(=O)O[C@H]1C(=O)[C@@]2(C)[C@H]([C@H](OC(=O)c3ccccc3)[C@]3(O)C[C@H](OC(=O)[C@H](O)[C@@H](NC(=O)c4ccccc4)c4ccccc4)C(C)=C1C3(C)C)[C@]1(OC(C)=O)CO[C@@H]1C[C@@H]2O [Taxol, paclitaxel, reference compound]
[2]; day 0
  mean tumor volume: 83 mm^3
[2]; day 10
  mean tumor volume: 387 mm^3
[2]; day 17
  mean tumor volume: 813** mm^3
[2]; day 24
  mean tumor volume: 1160** mm^3
[2]; day 31
  mean tumor volume: 1292** mm^3
[2]; day 32
  Mean Tumor Weight at Necropsy: 1.59 g
[3]; day 0
  mean animal body weight: 26.6 grams
[3]; day 10
  mean animal body weight: 29.5 grams
[3]; day 17
  mean animal body weight: 30.6 grams
[3]; day 24
  mean animal body weight: 31.1 grams
[3]; day 31
  mean animal body weight: 30.9 grams
[4]
  Abs Retic (reticulocyte count): 462
  Baso %: 0.67%
  Baso (basophils): 70 µL⁻¹
  EOS %: 0.83%
  Eos (eosinophil count): 70 µL⁻¹
  HCT (hematocrit): 41.5%
  HGB (hemoglobin): 14.1 g/dL
  IRF (immature RET fraction): 0.56
  Lymph %: 24.7%
  Lymph (lymphocytes): 2600 µL⁻¹
  MCH (mean corpuscular hemoglobin): 15.6 pg
  MCV (mean corpuscular volume): 45.9 fL
  Mono (monocytes): 300 µL⁻¹
  Neut %: 70.8%
  Neut (neutrophils): 7400 µL⁻¹
  PLAT (platelets): 1.943e+06 µL⁻¹
  RBC (red blood cells): 9.03e+06 µL⁻¹
  RDW (RBC distribution width): 21.8%
  RET (reticulocytes): 5.1%
  WBC (white blood cells): 10400 µL⁻¹
[5]
  % TGD, Percent Tumor Growth Delay (vs. Group control): 104%
  T-C (Test-control, difference of medians): 16.9 days
[5]; vehicle group 16.2
  Median TTE (Time-to-Endpoint, tumor volume >= 2 cc): 33.1 days
[6]; 15 mg/kg i.v.
  tumor weight at necropsy, Mean: 0.45 g
[6]; week 0, 15 mg/kg i.v.
  A549 mean tumor volume: 106 mm^3
[6]; week 1, 15 mg/kg i.v.
  A549 mean tumor volume: 130 mm^3
[6]; week 2, 15 mg/kg i.v.
  A549 mean tumor volume: 152 mm^3
[6]; week 3, 15 mg/kg i.v.
  A549 mean tumor volume: 177 mm^3
[6]; week 4, 15 mg/kg i.v.
  A549 mean tumor volume: 179 mm^3
[6]; week 5, 15 mg/kg i.v.
  A549 mean tumor volume: 186 mm^3
[6]; week 6, 15 mg/kg i.v.
  A549 mean tumor volume: 231 mm^3
[6]; week 7, 15 mg/kg i.v.
  A549 mean tumor volume: 275 mm^3
[6]; week 8, 15 mg/kg i.v.
  A549 mean tumor volume: 347 mm^3
[6]; week 9, 15 mg/kg i.v.
  A549 mean tumor volume: 360 mm^3
[6]; within 1 week (7 days) from start, Taxol 15 mg/kg i.v., vehicle control 45%
  increase in mean tumor volume: 23%
